Source: patent US6890951B2, “Treatment of addiction and addiction-related behavior” (Brookhaven Science Associates LLC, priority 1998, dated 2005)
Like-named read-outs stand apart in the source and are kept apart here.

Key:
GABAB receptors = biological target: T1, GABAB receptors (Rattus norvegicus, UniProt Q9Z0U4); details: 2-hydroxysaclofen; cited from earlier work
T1 construct: microinjection of baclofen (0.1-1 nmol) into the ventral tegmental area; host or cells: ventral tegmental area of living animals (endogenous receptor)

[1] = test system: extracellular DA in the NACC; experiment: Microdialysis: ethanol-induced increases in NACC DA; assay type: in vivo, rats; details: ethanol 1.0 g/kg i.p., approximately 125 minutes following administration
Method: Ethanol at a dose of 1.0 g/kg i.p. was administered to the animals.

[2] = test system: extracellular DA in the NACC; experiment: In vivo microdialysis: nicotine-induced increases in extracellular NACC DA; design: species or system rats
Text: All animals were used under an IACUC-approved protocol and with strict adherence to the NIH guidelines. Adult male Sprague-Dawley rats (200-300 g, Taconic Farms), housed in the animals care facility under 12:12 light/dark conditions, were placed into 6 groups (n=5-9), anesthetized and siliconized guide cannulae were stereotactically implanted into the right NACC (2.0 mm anterior and 1.0 mm lateral to bregms, and 7.0 mm ventral to the cortical surface) at least 4 days prior to study. […] Animals were placed in bowls, and probes were inserted and flushed with ACSF overnight. On the day of the study, a minimum of three samples were injected to determine baseline stability. Samples were collected for 20 min. and injected on-line (CMA/160, BAS). The average Dopamine concentration of these three stable samples was defined as control (100%), and all subsequent treatment values were transformed to a percentage of that control. […] The high performance liquid chromatography (HPLC) system consists of a BAS reverse-phase column (3.0 μC-18), a BAS LC-4C electrochemical transducer with a dual/glassy carbon electrode set at 650 mV, a computer that analyzes data on-line using a commercial software package (Chromograph Bioanalytical Systems), and a dual pen chart recorder. The mobile phase (flow rate 1.0 ml/min) consisted of 7.0% methanol, 50 mM sodium phosphate monobasic, 1.0 mM sodium octyl sulfate, and 0.1 mm EDNA, pH 4.0. […] Upon completion of the study, animals were decapitated and frozen sections were obtained for probe placement verification.
The open circles are control animals.
In all studies, animals were placed in the microdialysis bowls the night before the experiment and artificial cerebrospinal fluid (ACSF) was perfused through the microdialysis probes at a flow rate of 2.0 μl/min. At the end of each study, animals were sacrificed and their brains were removed and sectioned for probe placement verification.

serotonin (5-HT) = experiment: Microdialysis Example 15: extracellular serotonin after nicotine; assay type: in vivo; details: nicotine 0.4 mg/kg s.c., saline pretreated animals
Method: (§1) Briefly, two days prior to the microdialysis experiments, siliconized guide cannulae were implanted targeting the NAcc (A=+1.5 mm, L=−1.0 mm, V=−5.6 mm). […] Dialysate samples were assayed for monoamine content by microbore high-pressure liquid chromatography (HPLC) coupled with electrochemical detection. […] Peak effects were analyzed with a one-way ANOVA, and post-hoc Bonferroni t-test of topiramate pretreated groups compared to saline pretreated controls provided ANOVA significance at a critical value of 0.05.

norepinephrine (NE) = experiment: Microdialysis Example 15: extracellular norepinephrine after nicotine; assay type: in vivo; details: nicotine 0.4 mg/kg s.c., saline pretreated animals
Method: as §1

[3] = test system: mesolimbic extracellular dopamine (DA), NAcc; experiment: Microdialysis Example 15: extracellular dopamine after nicotine; assay type: in vivo; details: nicotine 0.4 mg/kg s.c., saline pretreated animals
Method: as §1

[4] = test system: extracellular DA levels in the NACC; details: cited from earlier work
rats [5] = experiment: Nicotine-induced conditioned place preference; assay type: in vivo
Text: A total of 8 rats were examined for each treatment pairing. Animals received 4 pairings over an 8 day period, one pairing per day. […] The protocol on days 1 and 2 was repeated 3 additional times.
The CPP apparatus was made entirely of plexiglass, except for the floor in one of the pairing chambers, which was made of a stainless steel plate with holes (0.5 mm in diameter) spaced 0.5 mm from edge to edge. The two pairing chambers differed in visual and tactile cues. One chamber was entirely light blue with the stainless steel floor and the second chamber was light blue with horizontal black stripes (2.5 cm wide) spaced 3.8 cm apart with a smooth plexiglass floor.
The conditioning procedure consisted of 20 sessions carried out consecutively over 20 days. The first three sessions were habituation sessions, during which the animals were handled for 5 minutes per day and exposed to the sights and sounds of the test room. […] The amount of time spent in each chamber was recorded using an automated infrared beam electronically coupled to a timer.
The animals were habituated as described above. […] Subsequently, the animals were then placed into the appropriate chamber for 30 minutes. This was repeated for 8 pairings over a 16 day period. On the test day, animals were placed in the CPP apparatus and allowed free access to the all of the CPP chambers and the amount of time spent in chamber was recorded.

[6] = test system: synaptic DA (11C-raclopride binding, striatum); experiment: Primate PET: 11C-raclopride mean DV ratio, GVG and nicotine; assay type: in vivo, baboons (Papio anubis)
Method: Adult female baboons (n=16) (Papio anubis, 13-18 kg) were used for all imaging studies and carbon-11 labeled raclopride (^11C-raclopride). […] Control animals (Group 1) received two injections of ^11C-raclopride without any drug intervention in order to determine the test/retest variability of the measurement. […] Arterial blood samples were obtained throughout the study and selected plasma samples were analyzed for the presence of unchanged ^11C-raclopride. Animals were not removed from the gantry between isotope injections.
Each primate (n=16) received two ^11C-raclopride injections. […] Test/retest primates (n=7, Group 1, Table XVI) received placebo (0.9% saline, 1 ml/kg) 30 mins prior to the second radiotracer injection in order to determine the test/retest variability of the method.

Sprague-Dawley rats = experiment: Gross locomotor activity during microdialysis (infrared motion sensor); details: nicotine, regardless of the dose of GVG
Text: In parallel to the quantitative estimates of dopamine concentration, the locomotor response of these animals to stimulant administration was simultaneously quantified using an infrared motion sensor. This infrared optical proximity detector monitored movement of the gimbaled arm, an integral component of the freely moving system. The digital output of the detector was interfaced with an IBM personal computer and programmed to count both positive and negative arm deflections. […] Locomotor activity was then expressed as the number of deflections per sample interval.

[7] = test system: extracellular DA levels in the NACC; details: SCH 50911 alone; cited from earlier work
GABAA receptor complex = details: in vivo; cited from earlier work
rats [8] = details: baclofen 1.25-5 mg/kg i.p. acute pretreatment; for at least four hours; cited from earlier work
male Wistar rats = details: baclofen; cited from earlier work
rats [9] = details: microinjection of baclofen into the ventral tegmental area; cited from earlier work
cocaine abuser = details: case report; cited from earlier work
NAc DA = experiment: Microdialysis: cocaine/heroin (speedball) induced increases in NAc DA; assay type: in vivo, rats
Method: In vivo microdialysis studies were performed using adult male Sprague-Dawley rats (Taconic Farms) as detailed previously (Morgan and Dewey, 1998). Cocaine, a dopamine reuptake inhibitor, (n=6-8) was administered (i.p.) at a dose of 20 mg/kg while heroin, an indirect dopamine releaser, (n=6-8) was administered (i.p.) at a dose of 0.5 mg/kg. In studies designed to investigate the synergistic effects of a cocaine/heroin combination (n=6-8), both drugs were administered at the identical dose used in the single drug studies. Alone cocaine produced a marked elevation in extracellular DA of approximately 380% above baseline values, 60 minutes following administration. DA returned to baseline within 120 minutes. In contrast, heroin increased NAc DA by only 70%, 60 minutes following administration, returning to baseline within 140 minutes. However, when combined, the two drugs produced an increase in NAc DA of approximately 1000%, 180 minutes following administration that had not returned to baseline values by 200 minutes after reaching peak values (FIG. 9).

[10] = test system: extracellular DA in the NACC; experiment: Microdialysis: methamphetamine-induced increases in NACC DA; assay type: in vivo, rats
Text: All animals were used under an IACUC-approved protocol and with strict adherence to the NIH guidelines. Adult male Sprague-Dawley rats (200-300 g, Taconic Farms), housed in the animals care facility under 12:12 light/dark conditions, were placed into 6 groups (n=5-9), anesthetized and siliconized guide cannulae were stereotactically implanted into the right NACC (2.0 mm anterior and 1.0 mm lateral to bregms, and 7.0 mm ventral to the cortical surface) at least 4 days prior to study. Microdialysis probes (2.0 mm, Bioanalytical Systems, BAS, West Lafayette, Ind.) were positioned within the guide cannulae and artificial cerebrospinal fluid (ACSF, 155.0 mM NA^−, 1.1 mM Ca^2−, 2.9 mM K^−, 132.76 mM Cl^−, and 0.83 mM Mg^2−) was administered through the probe using a CMA/100 microinfusion pump (BAS) at a flow rate of 2.0 μl/min. Animals were placed in bowls, and probes were inserted and flushed with ACSF overnight. On the day of the study, a minimum of three samples were injected to determine baseline stability. Samples were collected for 20 min. and injected on-line (CMA/160, BAS). The average Dopamine concentration of these three stable samples was defined as control (100%), and all subsequent treatment values were transformed to a percentage of that control. […] The high performance liquid chromatography (HPLC) system consists of a BAS reverse-phase column (3.0 μC-18), a BAS LC-4C electrochemical transducer with a dual/glassy carbon electrode set at 650 mV, a computer that analyzes data on-line using a commercial software package (Chromograph Bioanalytical Systems), and a dual pen chart recorder. The mobile phase (flow rate 1.0 ml/min) consisted of 7.0% methanol, 50 mM sodium phosphate monobasic, 1.0 mM sodium octyl sulfate, and 0.1 mm […], pH 4.0. DA eluted at 7.5 min. Upon completion of the study, animals were decapitated and frozen sections were obtained for probe placement verification.
Methamphetamine at a dose of 1.25 mg/kg i.p. and 2.5 mg/kg i.p. was administered to the animals. It was noted that methamphetamine elevated extracellular DA concentrations in the NACC by approximately 2500% over basal levels, 100 minutes following administration of 2.5 mg/kg and approximately 1500% over basal levels following administration of 1.25 mg/kg (FIG. 6). DA returned to basal levels approximately 200 minutes following administration.

rat = details: cited from earlier work
[11] = Nicotine 0.4 mg/kg s.c./Vehicle, 4 pairings (Table XII)
[12] = acquisition, Saline/Nicotine 0.4 mg/kg s.c., 8 pairings (Table XV)
[13] = expression, Saline/Nicotine (0.4 mg/kg s.c.) 8 pairings, saline on test day
[14] = expression, Saline/Nicotine (0.4 mg/kg s.c.) 8 pairings, saline on test day, listed as nicotine

T1 sequence (Q9Z0U4 17-960 limits assumed): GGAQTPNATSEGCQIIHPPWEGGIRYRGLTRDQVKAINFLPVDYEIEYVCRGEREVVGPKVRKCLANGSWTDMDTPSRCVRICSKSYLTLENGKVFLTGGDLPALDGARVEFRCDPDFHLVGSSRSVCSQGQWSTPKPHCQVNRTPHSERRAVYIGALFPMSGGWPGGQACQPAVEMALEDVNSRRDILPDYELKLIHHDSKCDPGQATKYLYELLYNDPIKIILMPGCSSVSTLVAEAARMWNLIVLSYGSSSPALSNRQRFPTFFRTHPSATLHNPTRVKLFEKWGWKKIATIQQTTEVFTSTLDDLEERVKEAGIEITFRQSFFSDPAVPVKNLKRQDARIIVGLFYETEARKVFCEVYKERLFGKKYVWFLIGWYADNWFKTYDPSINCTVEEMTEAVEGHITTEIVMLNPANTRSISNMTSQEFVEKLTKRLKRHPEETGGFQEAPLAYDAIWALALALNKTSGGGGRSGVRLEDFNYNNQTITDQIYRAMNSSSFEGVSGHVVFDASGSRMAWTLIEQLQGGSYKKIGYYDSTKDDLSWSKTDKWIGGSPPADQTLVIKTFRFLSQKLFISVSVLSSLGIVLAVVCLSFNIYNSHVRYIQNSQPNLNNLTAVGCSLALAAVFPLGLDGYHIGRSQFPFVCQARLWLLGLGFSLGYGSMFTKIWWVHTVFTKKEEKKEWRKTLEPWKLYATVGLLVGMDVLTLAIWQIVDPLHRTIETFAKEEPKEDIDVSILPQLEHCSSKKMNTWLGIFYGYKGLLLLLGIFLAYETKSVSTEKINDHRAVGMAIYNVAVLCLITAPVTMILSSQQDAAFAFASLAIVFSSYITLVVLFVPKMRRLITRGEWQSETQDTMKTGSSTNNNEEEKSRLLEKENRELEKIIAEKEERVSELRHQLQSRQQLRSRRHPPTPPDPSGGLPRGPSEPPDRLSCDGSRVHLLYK
T1 sequence (O88871 41-940 partner): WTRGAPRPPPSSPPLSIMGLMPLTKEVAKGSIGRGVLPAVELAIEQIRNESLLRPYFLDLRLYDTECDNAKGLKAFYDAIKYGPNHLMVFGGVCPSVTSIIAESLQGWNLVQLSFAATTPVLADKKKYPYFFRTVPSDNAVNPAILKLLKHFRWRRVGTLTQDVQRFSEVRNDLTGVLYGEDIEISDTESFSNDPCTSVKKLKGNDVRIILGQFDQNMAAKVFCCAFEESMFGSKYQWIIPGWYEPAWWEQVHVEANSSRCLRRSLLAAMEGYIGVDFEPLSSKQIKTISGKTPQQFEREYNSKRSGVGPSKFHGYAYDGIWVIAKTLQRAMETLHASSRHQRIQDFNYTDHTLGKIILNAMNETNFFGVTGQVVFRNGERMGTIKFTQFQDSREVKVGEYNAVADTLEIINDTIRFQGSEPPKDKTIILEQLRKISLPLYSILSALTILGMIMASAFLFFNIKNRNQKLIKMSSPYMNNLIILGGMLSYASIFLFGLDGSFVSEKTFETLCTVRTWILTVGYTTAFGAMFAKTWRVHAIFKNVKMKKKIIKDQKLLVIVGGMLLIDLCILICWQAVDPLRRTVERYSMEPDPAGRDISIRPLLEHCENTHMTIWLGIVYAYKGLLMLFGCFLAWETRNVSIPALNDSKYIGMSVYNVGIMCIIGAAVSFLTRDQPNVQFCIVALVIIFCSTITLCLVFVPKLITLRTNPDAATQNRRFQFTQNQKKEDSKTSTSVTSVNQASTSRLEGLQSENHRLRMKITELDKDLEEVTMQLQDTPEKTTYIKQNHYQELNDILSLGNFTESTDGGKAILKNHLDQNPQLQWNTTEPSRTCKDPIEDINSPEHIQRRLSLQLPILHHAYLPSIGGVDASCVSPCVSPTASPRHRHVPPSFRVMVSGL

In the case of NCC(O)(CS(=O)(=O)O)c1ccc(Cl)cc1 (centres unmarked) [2-hydroxysaclofen], the “effect of baclofen on morphine CPP” value (GABAB receptors) is listed as “antagonized”.
For CCO [Ethanol], the “elevation of extracellular DA concentrations in the NACC over basal levels” value [1] was “approximately 200%”.
For CN1CCC[C@H]1c1cccnc1 [Nicotine], the “increase of NACC DA levels (rank order)” value ([2]; nicotine) was 90%, the “time for DA to return to basal levels” value ([2]; nicotine 0.4 mg/kg s.c., Group 1) was “approximately 160 minutes” and the “DA levels, % of basal levels” value ([2]; nicotine 0.4 mg/kg s.c., Group 1 (naive)) was “approximately 200%”. For the same molecule, the “increase in extracellular DA concentrations in the NACC” value ([2]; nicotine 0.4 mg/kg s.c., Group 1 (naive), 80 minutes following administration) was “approximately 100%”, the 5-HT increase (serotonin (5-HT)) was 116±11.2% and the NE increase (norepinephrine (NE)) was 176±26%. The DA increase [3] was 70±10.5%, the “increase in extracellular DA levels in the NACC” value ([4]; nicotine 0.6 mg/kg s.c.) was 220% and the “increase in extracellular DA levels in the NACC” value ([4]; nicotine 0.8 mg/kg s.c.) was 179%. The “Time spent in chambers, Paired” value (rats [5]; [11]) was 9.4 ± 0.5 min, the “Time spent in chambers, Unpaired” value (rats [5]; [11]) was 5.6 ± 0.5 min and the “Time spent in chambers, Paired” value (rats [5]; [12]) was 9.6 ± 0.6^1 min. The “Time spent in chambers, Unpaired” value (rats [5]; [12]) was 5.4 ± 0.6 min, the “Time spent in chambers, Paired” value (rats [5]; [13]) was 9.6 ± 0.6 min and the “Time spent in chambers, Unpaired” value (rats [5]; [13]) was 5.4 ± 0.6 min. The “Time spent in chambers, Paired” value (rats [5]; [14]) was 9.6 ± 0.6 min, the “Time spent in chambers, Unpaired” value (rats [5]; [14]) was 5.4 ± 0.6 min and the “reduction of the mean DV ratio” value ([6]; Group 3: nicotine alone) was 12%. The “% Change in Mean DV Ratio” value ([6]; Group 3: nicotine alone 0.3 mg total, 30 minutes prior to second 11C-raclopride injection) was −12.3 ± 2.6% and the gross locomotor activity (Sprague-Dawley rats) was “increased gross locomotor activity”.
For CC1(C)CO[C@@H](CC(=O)O)CN1 [SCH 50911], the “DA levels when given alone” value [7] is given as “does not significantly alter DA levels”.
For Cc1nnc2n1-c1ccc(Cl)cc1C(c1ccccc1)=NC2 [alprazolam], the “rate of cocaine self-administration” value (GABAA receptor complex) is listed as “decreased the rate of cocaine self-administration”.
In the case of NCC(CC(=O)O)c1ccc(Cl)cc1 (centres unmarked) [baclofen], the self-administration of cocaine (rats [8]) is listed as “suppress self-administration of cocaine”, the “break points for intravenous administration of cocaine” value (male Wistar rats) is listed as “dose-dependent decrease” and the “rate of drug intake” value (male Wistar rats) is listed as “did not affect the rate of drug intake”. The “rate-current intensity curve of lateral hypothalamus stimulation” value (rats [9]) was “rightward shift of the rate-current intensity curve”.
For NCC1(CC(=O)O)CCCCC1 [gabapentin], the “cocaine withdrawal and craving” value (cocaine abuser) is given as “attenuated cocaine withdrawal and craving”.
In the case of CC(=O)Oc1ccc2c3c1O[C@H]1[C@@H](OC(C)=O)C=C[C@H]4[C@@H](C2)N(C)CC[C@@]341 [heroin], the “time for DA to return to baseline” value (NAc DA; cocaine 20 mg/kg i.p. or heroin 0.5 mg/kg i.p. alone) is reported as no more than 140 min and the “increase in NAc DA” value (NAc DA; heroin alone 0.5 mg/kg i.p., 60 minutes following administration) is reported as 70%.
In the case of CN[C@@H](C)Cc1ccccc1 [methamphetamine], the “time for DA to return to basal levels” value ([10]; methamphetamine) is reported as “approximately 200 minutes” and the “elevation of extracellular DA concentrations in the NACC over basal levels” value ([10]; methamphetamine 1.25 mg/kg i.p.) is reported as “approximately 1500%”.
For NC(=O)CCC/N=C(\c1ccc(Cl)cc1)c1cc(F)ccc1O [progabide], the “conditioned place preference or aversion, alone” value (rat; progabide alone) is listed as “does not produce conditioned place preference or aversion” and the “CPP response to […] i.p. of amphetamine” value (rat; progabide pretreatment, present for 35 minutes) is listed as “did not alter the CPP response”.
